According to patent US20120258980A1, “Antibacterial Agent for Drug-Resistant Bacteria, Method for Screening for Same, and Use of Same” (priority 2009, published 2012):
In brackets after ≈: the same amount, converted by molar mass. Read-outs that look alike come from different tables or passages of the source.

What was measured:
[1] = test system: methicillin-susceptible S. aureus (MSSA), MRSA and mutants thereof; assay: MIC measurement, Test Example 3 (MSSA, MRSA and sequential gyrA/grlA quinolone-resistant mutants); assay type: cell-based, Staphylococcus aureus; details: Staphylococcus aureus
Text: That is, the first-step quinolone-resistant mutants are bacterial strains which are the same as their parent strains (clinical isolates) except that the genes shown in the corresponding parts of Table 1-1 are mutated. The second-step quinolone-resistant mutants are bacterial strains which are the same as the first-step quinolone-resistant mutants except that the genes shown in the corresponding parts of Table 1-1 are further mutated. The third-step quinolone-resistant mutants are bacterial strains which are the same as the second-step quinolone-resistant mutants except that the genes shown in the corresponding parts of Table 1-1 are further mutated. The fourth-step quinolone-resistant strain is a bacterial strain which is the same as the third-step quinolone-resistant mutant bacteria except that the gene shown in the corresponding part of Table 1-1 is further mutated.
(§1) Each of the bacterial strains listed in Table 1-1 was shake-cultured at 37° C. overnight in 4 mL of a medium (Tryptical Soy Broth: TSB, product of Becton Dickinson and Company). FDA209P was used as a control.
(§2) After completion of culturing, the resultant culture was suspended in a cation-adjusted Mueller Hinton Broth (CAMHB, product of Becton Dickinson and Company). Then, the obtained bacterial culture was adjusted in absorbance with the CAMHB so that the absorbance at 578 nm of the bacterial culture was adjusted to 0.3 measured by an absorption spectrometer. In addition, the resultant bacterial culture was 500-fold diluted with the CAMHB.
(§3) Each of the 500-fold diluted, pre-cultured bacterial cultures was added at 50 μL/well to the CAMHB containing the quinolones and the nybomycins at various concentrations (50 μL/well), followed by statically culturing at 37° C. overnight.
(§4) After completion of culturing, the growth of the bacteria was visually determined based on turbidity to measure MIC in each bacterial strain.

[2] = test system: VISA clinical isolates of MRSA (VI-MRSA) and of MSSA (VI-MSSA); assay: microbe, parasite or virus in culture; assay type: cell-based, Staphylococcus aureus
Experimental: as §1, §2, §3, §4
(§5) Here, the glycopeptides used were VCM and TEIC. The β-lactam used was OXA.

VRSA clinical isolates = assay: microbe, parasite or virus in culture; assay type: cell-based; details: Staphylococcus aureus
Experimental: as §1, §2, §3, §4, §5

Enterococcus faecalis = assay: MIC measurement, Test Example 6 (enterococcus); assay type: cell-based; details: Enterococcus faecalis, read-out: MIC
Experimental: as §1, §2, §3, §4
Quinolones and nybomycins were evaluated for antibacterial activity against Enterococcus faecalis shown in Table 6, wherein the other strains than NCTC12201 and NCTC12203 were subdivided from Shionogi & Co., Ltd (note that these strains are available also from the Department of Bacteriology, Juntendo University). The NCTC strains are both vancomycin-resistant E. faecalis and available from the National Collection of Type Cultures (NCTC).

## CCn1cc(C(=O)O)c(=O)c2cc(F)c(N3CCNCC3)cc21 [NFLX, norfloxacin]
[1]; MR5867-2, second-step mutant, further gyrA S84L
  MIC: 64 µg/mL (≈ 200 µM)
[1]; MR5867-3, third-step mutant, further grlA S80F
  MIC: > 128 µg/mL
[1]; MR5867-4, fourth-step mutant, further gyrA E88K
  MIC: > 128 µg/mL
[2]; Staphylococcus aureus, 99/3700-W, VI-MRSA, The United Kingdom
  MIC: 64 µg/mL (≈ 200 µM)
[2]; Staphylococcus aureus, 99/3759-V, VI-MRSA, The United Kingdom
  MIC: 128 µg/mL (≈ 401 µM)
[2]; Staphylococcus aureus, 28160, VI-MRSA, South African Republic
  MIC: 64 µg/mL (≈ 200 µM)
[2]; Staphylococcus aureus, 98141, VI-MRSA, France
  MIC: 64 µg/mL (≈ 200 µM)
[2]; Staphylococcus aureus, A7 (JCSC4842), VI-MRSA, Taiwan
  MIC: 32 µg/mL (≈ 100 µM)
[2]; Staphylococcus aureus, AMC11094, VI-MRSA, Korea
  MIC: 128 µg/mL (≈ 401 µM)
[2]; Staphylococcus aureus, B7 (JCSC4852), VI-MRSA, Taiwan
  MIC: 64 µg/mL (≈ 200 µM)
[2]; Staphylococcus aureus, BR1, VI-MRSA, Brazil
  MIC: 128 µg/mL (≈ 401 µM)
[2]; Staphylococcus aureus, BR2, VI-MRSA, Brazil
  MIC: 64 µg/mL (≈ 200 µM)
[2]; Staphylococcus aureus, BR3, VI-MRSA, Brazil
  MIC: 64 µg/mL (≈ 200 µM)
[2]; Staphylococcus aureus, BR4, VI-MRSA, Brazil
  MIC: 128 µg/mL (≈ 401 µM)
[2]; Staphylococcus aureus, BR5, VI-MRSA, Brazil
  MIC: 128 µg/mL (≈ 401 µM)
[2]; Staphylococcus aureus, HIP06297, VI-MRSA, America
  MIC: 64 µg/mL (≈ 200 µM)
[2]; Staphylococcus aureus, HIP06854, VI-MRSA, America
  MIC: 128 µg/mL (≈ 401 µM)
[2]; Staphylococcus aureus, HIP07920, VI-MRSA, America
  MIC: 16 µg/mL (≈ 50.1 µM)
[2]; Staphylococcus aureus, HIP07930, VI-MRSA, America
  MIC: 128 µg/mL (≈ 401 µM)
[2]; Staphylococcus aureus, HIP08926, VI-MRSA, America
  MIC: 64 µg/mL (≈ 200 µM)
[2]; Staphylococcus aureus, HIP09143, VI-MRSA, America
  MIC: > 128 µg/mL
[2]; Staphylococcus aureus, HIP09313, VI-MRSA, America
  MIC: 32 µg/mL (≈ 100 µM)
[2]; Staphylococcus aureus, HIP09433, VI-MRSA, America
  MIC: > 128 µg/mL
[2]; Staphylococcus aureus, HIP09662, VI-MRSA, America
  MIC: 64 µg/mL (≈ 200 µM)
[2]; Staphylococcus aureus, HIP09735, VI-MRSA, America
  MIC: > 128 µg/mL
[2]; Staphylococcus aureus, HIP09737, VI-MSSA, America
  MIC: > 128 µg/mL
[2]; Staphylococcus aureus, HIP09740, VI-MRSA, America
  MIC: > 128 µg/mL
[2]; Staphylococcus aureus, HIP10267, VI-MRSA, America
  MIC: > 128 µg/mL
[2]; Staphylococcus aureus, HIP10540, VI-MRSA, America
  MIC: > 128 µg/mL
[2]; Staphylococcus aureus, HIP12864, VI-MRSA, America
  MIC: 64 µg/mL (≈ 200 µM)
[2]; Staphylococcus aureus, HIP13036, VI-MRSA, America
  MIC: 16 µg/mL (≈ 50.1 µM)
[2]; Staphylococcus aureus, HIP13057, VI-MRSA, America
  MIC: 128 µg/mL (≈ 401 µM)
[2]; Staphylococcus aureus, IL (HIP7737), VI-MRSA, America
  MIC: > 128 µg/mL
[2]; Staphylococcus aureus, JCSC7193, VI-MRSA, Thailand
  MIC: 64 µg/mL (≈ 200 µM)
[2]; Staphylococcus aureus, JCSC7195, VI-MRSA, Thailand
  MIC: 128 µg/mL (≈ 401 µM)
[2]; Staphylococcus aureus, JCSC7203, VI-MRSA, Thailand
  MIC: 64 µg/mL (≈ 200 µM)
[2]; Staphylococcus aureus, LIM2, VI-MRSA, France
  MIC: 128 µg/mL (≈ 401 µM)
[2]; Staphylococcus aureus, LY-1999-01, VI-MSSA, Oman
  MIC: 16 µg/mL (≈ 50.1 µM)
[2]; Staphylococcus aureus, LY-1999-03, VI-MRSA, Oman
  MIC: 64 µg/mL (≈ 200 µM)
[2]; Staphylococcus aureus, MI (HIP5827), VI-MRSA, America
  MIC: 128 µg/mL (≈ 401 µM)
[2]; Staphylococcus aureus, MRSA / MSSA / NRS 76 / VISA, NRS76, VI-MSSA, America
  MIC: 128 µg/mL (≈ 401 µM)
[2]; Staphylococcus aureus, MRSA / MSSA / NRS 79 / VISA, NRS79, VI-MRSA, America
  MIC: > 128 µg/mL
[2]; Staphylococcus aureus, MRSA / MSSA / NRS 118 / VISA, NRS118, VI-MRSA, America
  MIC: 128 µg/mL (≈ 401 µM)
[2]; Staphylococcus aureus, MRSA / MSSA / NRS 126 / VISA, NRS126, VI-MRSA, America
  MIC: 64 µg/mL (≈ 200 µM)
[2]; Staphylococcus aureus, Mu3, VI-MRSA, Japan
  MIC: 128 µg/mL (≈ 401 µM)
[2]; Staphylococcus aureus, Mu50, VI-MRSA, Japan
  MIC: 128 µg/mL (≈ 401 µM)
[2]; Staphylococcus aureus, NJ (HIP5836), VI-MRSA, America
  MIC: 128 µg/mL (≈ 401 µM)
[2]; Staphylococcus aureus, P1V44, VI-MSSA, Belgium
  MIC: 4 µg/mL (≈ 12.5 µM)
[2]; Staphylococcus aureus, PC, VI-MRSA, America
  MIC: 64 µg/mL (≈ 200 µM)
[2]; Staphylococcus aureus, SA MER-S6, VI-MSSA, France
  MIC: 2 µg/mL (≈ 6.26 µM)
[2]; Staphylococcus aureus, SA MER-S12, VI-MSSA, France
  MIC: 2 µg/mL (≈ 6.26 µM)
[2]; Staphylococcus aureus, SA MER-S20, VI-MSSA, France
  MIC: 0.5 µg/mL (≈ 1.57 µM)
VRSA clinical isolates; VRS1, VRSA, Michigan
  MIC: > 128 µg/mL
VRSA clinical isolates; VRS2, VRSA, Pennsylvania
  MIC: > 128 µg/mL
VRSA clinical isolates; VRS3, VRSA, New York
  MIC: 128 µg/mL (≈ 401 µM)
VRSA clinical isolates; VRS4, VRSA, New York
  MIC: 128 µg/mL (≈ 401 µM)
VRSA clinical isolates; VRS5, VRSA, Michigan
  MIC: > 128 µg/mL
VRSA clinical isolates; VRS6, VRSA, Michigan
  MIC: > 128 µg/mL
VRSA clinical isolates; VRS7, VRSA, Michigan
  MIC: > 128 µg/mL
Enterococcus faecalis; E. faecalis 36-15672, quinolone-susceptible enterococci
  MIC: 4 µg/mL (≈ 12.5 µM)
Enterococcus faecalis; E. faecalis 36-15673, quinolone-susceptible enterococci
  MIC: 4 µg/mL (≈ 12.5 µM)
Enterococcus faecalis; E. faecalis 36-15678, quinolone-susceptible enterococci
  MIC: 4 µg/mL (≈ 12.5 µM)
Enterococcus faecalis; E. faecalis 36-15686, quinolone-resistant enterococci
  MIC: > 128 µg/mL
Enterococcus faecalis; E. faecalis 36-15688, quinolone-susceptible enterococci
  MIC: 2 µg/mL (≈ 6.26 µM)
Enterococcus faecalis; E. faecalis 36-15694, quinolone-resistant enterococci
  MIC: > 128 µg/mL
Enterococcus faecalis; E. faecalis 36-15696, quinolone-susceptible enterococci
  MIC: 4 µg/mL (≈ 12.5 µM)
Enterococcus faecalis; E. faecalis 36-15703, quinolone-resistant enterococci
  MIC: 64 µg/mL (≈ 200 µM)
Enterococcus faecalis; E. faecalis 36-15716, quinolone-resistant enterococci
  MIC: > 128 µg/mL
Enterococcus faecalis; E. faecalis 36-15718, quinolone-susceptible enterococci
  MIC: 4 µg/mL (≈ 12.5 µM)
Enterococcus faecalis; E. faecalis 36-15720, quinolone-susceptible enterococci
  MIC: 8 µg/mL (≈ 25.1 µM)
Enterococcus faecalis; E. faecalis 36-15722, quinolone-resistant enterococci
  MIC: 128 µg/mL (≈ 401 µM)
Enterococcus faecalis; E. faecalis 36-15726, quinolone-resistant enterococci
  MIC: 128 µg/mL (≈ 401 µM)
Enterococcus faecalis; E. faecalis 36-15730, quinolone-susceptible enterococci
  MIC: 8 µg/mL (≈ 25.1 µM)
Enterococcus faecalis; E. faecalis 36-15736, quinolone-susceptible enterococci
  MIC: 4 µg/mL (≈ 12.5 µM)
Enterococcus faecalis; E. faecalis 36-15741, quinolone-susceptible enterococci
  MIC: 4 µg/mL (≈ 12.5 µM)
Enterococcus faecalis; NCTC 12201 / VRE, E. faecalis NCTC12201, vancomycin-resistant (VRE), quinolone-susceptible enterococci
  MIC: 2 µg/mL (≈ 6.26 µM)
Enterococcus faecalis; NCTC 12203 / VRE, E. faecalis NCTC12203, vancomycin-resistant (VRE), quinolone-susceptible enterococci
  MIC: 2 µg/mL (≈ 6.26 µM)
